Experimental data reported in patent publication US20230082358A1, “3D PRINTED UV CROSSLINKING MASKS” (University of Maryland, College Park, priority 2021, published 2023).

Tests used:
Format in all cases: cell-based
[1] = test system: Human umbilical artery endothelial cells (HUAECs); assay: HUAECs heparin release study, vWF immunostaining; details: 48 h, p<0.05
Experimental: HUVECs were seeded in 96-well plates at a density of 3,500 cells/well in 235 μL of Medium 200 (with LSGS). Cells were left overnight to adhere before medium was replaced with 200 μL of treatment medium, which contained 0.1, 1, 10, 100, or 1000 μg/mL heparin in Medium 200 (with LSGS), while the control was medium only. The medium was replaced daily for the duration of this study. Cells were fixed with 10% formalin and permeabilized. Wells were treated overnight with anti-von Willebrand factor antibody (1:200, 100 μL, ab9378, Abcam, Cambridge, Mass.). The secondary antibody used was Alexa Fluor 633 (4 μg/mL, Invitrogen, Carlsbad, Calif.). Then the cells were stained with DAPI solution (3 μg/mL in PBS) for 10 min. […] MATLAB was used to quantify the intensity of the red channel and count the cells in the blue channel for 3 images of each of the 3 wells (n=9) to calculate a ratio of vWF intensity to number of cells.
(§1) Human umbilical artery endothelial cells (HUAECs) (Sigma-Aldrich) were seeded in MesoEndo Cell Growth Medium (Sigma-Aldrich) with the appropriate heparin treatment. […] Immunostaining and quantification was completed as described above at 48 h. Tissue factor pathway inhibitor (TFPI) was quantified with DuoSet ELISA kit (R&D Systems, Minneapolis, Minn.) according to the manufacturer's protocol. […]

[2] = test system: Human umbilical vein endothelial cells (HUVECs); assay: Cell metabolic activity assay (XTT), HUVECs; details: 100 and 1000 μg/mL heparin; 24, 72 and 120 h; p<0.05
Experimental: (§2) Human umbilical vein endothelial cells (HUVECs) (ThermoFisher Scientific, Waltham, Mass.) were seeded in 48-well plates at a density of 10,000 cells/well in 1 mL of Medium 200 (with manufacturer's required Low Serum Growth Supplement LSGS, ThermoFisher Scientific). Cells were left overnight to adhere before medium was replaced with 1 mL of treatment medium, which contained 0.1, 1, 10, 100, or 1000 μg/mL heparin in Medium 200 (with LSGS), while the control was medium only. The medium was replaced daily for the duration of this study. The electron coupling and XTT labeling reagents from the Cell Proliferation Kit II (XTT) (Roche, Mannheim, Germany) were mixed according to the manufacturer's protocol and added to the cell medium in a ratio of 1 to 2. Cell medium was removed from the wells and the XTT solution was added. It was incubated for 4 h and 100 μL was extracted in triplicate (n=9). The absorbance was measured with a Spark Multimode Microplate Reader (Tecan, Männedorf, Switzerland). Net absorbance was calculated (A475-A650) for each sample and XTT fold change was calculated by normalizing the net absorbance to that at 4 h.

[3] = test system: Human umbilical vein endothelial cells (HUVECs); assay: Scratch assay, HUVECs; details: p<0.05
Experimental: HUVECs were treated in culture with treatment medium for 48 h. Treatment medium contained 0.1, 1, 10, 100, or 1000 μg/mL heparin in Medium 200 (with LSGS), while the control was medium only. The medium was replaced daily for the duration of this study. A 48-well plate was treated for 45 min with 200 μL of 0.1% wt/vol porcine gelatin (Sigma-Aldrich, St. Louis, Mo.) in DI water at 37° C. Cells were seeded in the well plate at a density of 100,000 cells/well in 800 μL of Medium 200 (with LSGS). Cells were left to adhere for 24 h before the medium was replaced. Scratches were made with a 200 μL pipette tip. Cells were imaged for 1 to 16 h after the scratches were made. ImageJ was used to quantify the gap distance in one image for each well (n=6). Gap closure (%) was reported as
where lo is the original gap length and lt is the gap length at a given time. The gap closure speed was defined as the slope of gap length curve with respect to time and was normalized to that of the 0 μg/mL group.

[4] = test system: Human umbilical vein endothelial cells (HUVECs); assay: Actin immunostaining / adhesion, HUVECs; details: 72 h treatment
Experimental: (§3) HUVECs were treated in culture with treatment medium for 72 h. Treatment medium contained 0.1, 1, 10, 100, or 1000 μg/mL heparin in Medium 200 (with LSGS), while the control was medium only. The medium was replaced daily for the duration of this study. Cells were seeded in 96-well plate at a density of 30,000 cells/well in 200 μL of Medium 200 (with LSGS). Cells were left to adhere for 2 h before the medium was removed. Cells were fixed with 10% formalin and permeabilized. Wells were stained for 1 h with Alexa Fluor 488 Phalloidin (1:100, 100 μL, A12379, Invitrogen). Then the cells were stained with DAPI solution (3 μg/mL in PBS) for 10 min. Wells were imaged with an Eclipse Ti2 microscope under FITC excitation (465-495 nm) and emission (515-555 nm) and DAPI excitation (340-380 nm) and emission (435-485 nm). MATLAB was used to quantify the area of the green channel and count the cells in the blue channel for 3 images of each of the 3 wells (n=9) to calculate a ratio of F-actin area to number of cells.

[5] = test system: Human umbilical artery endothelial cells (HUAECs); assay: HUAECs heparin release study, phalloidin (F-actin) staining; details: heparin profiles A, B, C; 48 h; p>0.05
Experimental: as §3, §1

[6] = test system: Human umbilical artery endothelial cells (HUAECs); assay: HUAECs heparin release study, TFPI ELISA; details: for release of TFPI: after 48 h, comparable to 0 μg/mL, more than profiles A and B
Experimental: Human umbilical artery endothelial cells (HUAECs) (Sigma-Aldrich) were seeded in MesoEndo Cell Growth Medium (Sigma-Aldrich) with the appropriate heparin treatment. For XTT and TFPI ELISA measurements, cells were seeded in a 24-well plate at a density of 150,000 cells/well in 1.8 mL of medium, while for immunostaining, cells were seeded in a 96-well plate at a density of 25,000 cells/well in 300 µL of medium. Treatment medium contained the heparin concentrations detailed in Table 1. One control group was medium only, while the other control group contained 30 μg/mL heparin, an estimate of heparin concentration during surgery. The medium was replaced at 8, 24, and 48 h. XTT was conducted as described above at 24 and 48 h. Immunostaining and quantification was completed as described above at 48 h. Tissue factor pathway inhibitor (TFPI) was quantified with DuoSet ELISA kit (R&D Systems, Minneapolis, Minn.) according to the manufacturer's protocol. The ladder and all samples were run in triplicate (n=9).

[7] = test system: Human umbilical artery endothelial cells (HUAECs); assay: HUAECs heparin release study, XTT
Experimental: as §2, with “Cell medium was removed from the wells and the XTT solution was added. It was incubated for 4 h and 100 μL was extracted in triplicate (n=9).” left out
as §1

[8] = test system: Human umbilical vein endothelial cells (HUVECs); assay: vWF immunostaining, HUVECs; details: higher heparin concentrations; up to 120 h
Experimental: HUVECs were seeded in 96-well plates at a density of 3,500 cells/well in 235 μL of Medium 200 (with LSGS). Cells were left overnight to adhere before medium was replaced with 200 μL of treatment medium, which contained 0.1, 1, 10, 100, or 1000 μg/mL heparin in Medium 200 (with LSGS), while the control was medium only. The medium was replaced daily for the duration of this study. Cells were fixed with 10% formalin and permeabilized. Wells were treated overnight with anti-von Willebrand factor antibody (1:200, 100 μL, ab9378, Abcam, Cambridge, Mass.). The secondary antibody used was Alexa Fluor 633 (4 μg/mL, Invitrogen, Carlsbad, Calif.). Then the cells were stained with DAPI solution (3 μg/mL in PBS) for 10 min. Wells were imaged with an Eclipse Ti2 microscope (Nikon, Tokyo, Japan) under Cy5 excitation (625-650 nm) and emission (670 nm) and DAPI excitation (340-380 nm) and emission (435-485 nm). MATLAB was used to quantify the intensity of the red channel and count the cells in the blue channel for 3 images of each of the 3 wells (n=9) to calculate a ratio of vWF intensity to number of cells.

## heparin
[1]
  vWF intensity, profile A versus profile C: higher
[2]
  XTT metabolic activity compared to 0 μg/mL heparin: significantly decreased
[3]; 1, 10, 100 and 1000 μg/mL heparin
  gap closure over 16 h: significantly decreases
[3]; 10, 100 and 1000 μg/mL heparin
  gap closure speed (normalized to 0 μg/mL): significantly decreases
[4]; 1000 μg/mL heparin, p<0.05
  number of cells adhered after 2 h, compared to 0 μg/mL: significantly lower
  ratio of F-actin area to number of cells, compared to 0 μg/mL: significantly lower
[4]; 0.1 and 1 μg/mL heparin
  number of cells adhered after 2 h: support
  ratio of F-actin area to number of cells: support
[5]
  phalloidin (F-actin) area ratio: not impacted
[6]; 30 μg/mL heparin
  release of TFPI: highest release of TFPI
[6]; heparin profile A, after 24 and 48 h, p<0.05
  tissue factor pathway inhibitor (TFPI) produced: significantly less
[6]; heparin profile C
  release of TFPI: highest release of TFPI
[7]; heparin profile A (246/122/118 μg/mL at 0-8/8-24/24-48 h)
  XTT metabolic activity of HUAECs at 48 h (normalized to 0 μg/mL): reduces
[7]; slower heparin profiles B and C
  XTT metabolic activity and vWF expression of HUAECs: unaffected
[8]
  vWF expression (ratio of vWF intensity to number of cells): upward trend
